# Measured values taken from patent publication US8357833B2, “Corn plants and seed enhanced for asparagine and protein” (priority 2007, dated 2013).
# Experiments:
# [1] = target: T1, Zea mays asparagine synthetase Zm AsnS3 (SEQ ID NO: 6, encoded by SEQ ID NO: 5) (Zea mays, UniProt B5U8J8); experiment: Kinetics of recombinant his-tagged, refolded maize asparagine synthetase AsnS3 (substrate titration, asparagine by HPLC); type: biochemical; settings: 100 mM Hepes, pH 8.0, 10 mM MgCl2, read-out: Km(NH4^+)
# T1 construct: 588 aa
# T1 sequence (B5U8J8 1-588): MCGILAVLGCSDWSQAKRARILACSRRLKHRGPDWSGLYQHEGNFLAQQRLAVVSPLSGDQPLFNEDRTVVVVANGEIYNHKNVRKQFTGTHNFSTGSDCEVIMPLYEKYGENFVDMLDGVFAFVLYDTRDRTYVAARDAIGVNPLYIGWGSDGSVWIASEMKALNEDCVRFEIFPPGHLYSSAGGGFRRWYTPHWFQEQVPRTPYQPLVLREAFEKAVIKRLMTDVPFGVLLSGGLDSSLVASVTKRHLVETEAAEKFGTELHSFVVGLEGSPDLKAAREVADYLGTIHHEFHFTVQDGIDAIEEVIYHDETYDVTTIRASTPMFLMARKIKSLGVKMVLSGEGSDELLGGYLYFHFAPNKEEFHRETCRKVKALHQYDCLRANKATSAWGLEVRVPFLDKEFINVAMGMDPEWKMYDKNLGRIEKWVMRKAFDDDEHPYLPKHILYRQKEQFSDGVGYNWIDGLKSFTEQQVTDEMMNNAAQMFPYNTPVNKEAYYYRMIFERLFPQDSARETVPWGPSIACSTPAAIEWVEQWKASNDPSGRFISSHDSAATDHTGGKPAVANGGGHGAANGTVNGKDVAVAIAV
# Experimental: (§1) The effect of expression of asparagine synthetase genes on asparagine synthetase activity was measured in transgenic events of pMON79706 and pMON92870. Frozen, ground leaf tissue was aliquoted (200-400 mg) into wells from a precooled 96 deep-well plate. Protein was extracted in Buffer A (100 mM Hepes-OH, pH 8.0, 0.1 mM EDTA, 10 mM MgCl2, 2 mM aspartate, 0.5 mM DTT, 67 mM mercaptoethanol, 20% (v/v) glycerol, 0.1 mM ATP, 1% (v/v) P9599 (Sigma Company), 25 mM KCl). A small amount of sand was added to each well. Buffer A was then added to the leaf tissue in the wells at a ratio of 4:1 (buffer:tissue). The plates were then agitated in a paint shaker for 2 min. to mix the sample and then centrifuged at 5000×g for 10 minutes. The supernatant (100-200 μL) was desalted in a 96-well macro spin plate (SNS S025L, The Nest Group Inc., Southboro, Mass.) equilibrated in buffer A. The supernatant was then either assayed immediately or frozen in liquid nitrogen and maintained at −80° C. until used. […] The mixture was then filtered to remove precipitate and asparagine was measured by HPLC. […]
# [2] = target: T2, Zea mays asparagine synthetase Zm AsnS1 (SEQ ID NO: 2, encoded by SEQ ID NO: 1) (Zea mays, UniProt B4FFJ0); experiment: Kinetics of recombinant his-tagged, refolded maize asparagine synthetase AsnS1 (substrate titration, asparagine by HPLC); type: biochemical; settings: 100 mM Hepes, pH 8.0, 10 mM MgCl2, read-out: Km(NH4^+)
# T2 sequence (B4FFJ0 with tags, fused parts or gaps): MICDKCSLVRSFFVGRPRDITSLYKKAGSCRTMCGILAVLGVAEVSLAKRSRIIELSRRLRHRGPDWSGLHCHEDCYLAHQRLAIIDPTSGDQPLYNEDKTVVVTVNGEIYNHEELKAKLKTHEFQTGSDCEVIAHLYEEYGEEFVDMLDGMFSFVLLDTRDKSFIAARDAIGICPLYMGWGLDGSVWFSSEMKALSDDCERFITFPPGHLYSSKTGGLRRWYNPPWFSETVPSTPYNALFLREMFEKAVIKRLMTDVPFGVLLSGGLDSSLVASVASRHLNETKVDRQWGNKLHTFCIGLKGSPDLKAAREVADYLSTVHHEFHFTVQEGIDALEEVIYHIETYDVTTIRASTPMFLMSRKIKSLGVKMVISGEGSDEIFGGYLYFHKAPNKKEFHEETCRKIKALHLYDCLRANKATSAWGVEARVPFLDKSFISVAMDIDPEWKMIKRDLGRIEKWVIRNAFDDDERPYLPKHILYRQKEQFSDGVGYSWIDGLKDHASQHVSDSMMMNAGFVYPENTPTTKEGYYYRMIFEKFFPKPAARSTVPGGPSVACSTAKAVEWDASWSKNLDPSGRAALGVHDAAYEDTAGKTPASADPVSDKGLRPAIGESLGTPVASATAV
# Experimental: as §1
compound,measurement,setting,value
N [NH4^+],Km,[1],8.4 mM
same,Km,[2],9.9 mM
